PMC12224939, “Trypstatin as a Novel TMPRSS2 Inhibitor with Broad‐Spectrum Efficacy against Corona and Influenza Viruses” (Advanced Science, 2025)
Where a name gives a salt, the structure may show the parent alone. Read-outs that look alike come from different tables or passages of the source. Bridge positions count the residues as written; N and C are the ends. Ends that are not written are not given here.

How the values were obtained:
[1] = test system: Influenza B/Ned/537/05 (Ned05; B/Yamagata lineage); test: Influenza virus inhibition assay in Calu-3 cells, IBV; type: cell-based, influenza B virus
[2] = test system: Influenza A/Virginia/ATCC3/2009 (Virg09; A/H1N1); test: Influenza virus inhibition assay in Calu-3 cells, IAV H1N1; type: cell-based, influenza A virus
[3] = cited from earlier work
TMPRSS14 (Matriptase) = target: T1, TMPRSS14 (Matriptase) (Homo sapiens, UniProt Q9Y5Y6); test: Recombinant TMPRSS14 activity assay; type: biochemical; settings: recombinant enzyme
T1 construct: purchased 3946
T1 sequence (Q9Y5Y6 whole entry): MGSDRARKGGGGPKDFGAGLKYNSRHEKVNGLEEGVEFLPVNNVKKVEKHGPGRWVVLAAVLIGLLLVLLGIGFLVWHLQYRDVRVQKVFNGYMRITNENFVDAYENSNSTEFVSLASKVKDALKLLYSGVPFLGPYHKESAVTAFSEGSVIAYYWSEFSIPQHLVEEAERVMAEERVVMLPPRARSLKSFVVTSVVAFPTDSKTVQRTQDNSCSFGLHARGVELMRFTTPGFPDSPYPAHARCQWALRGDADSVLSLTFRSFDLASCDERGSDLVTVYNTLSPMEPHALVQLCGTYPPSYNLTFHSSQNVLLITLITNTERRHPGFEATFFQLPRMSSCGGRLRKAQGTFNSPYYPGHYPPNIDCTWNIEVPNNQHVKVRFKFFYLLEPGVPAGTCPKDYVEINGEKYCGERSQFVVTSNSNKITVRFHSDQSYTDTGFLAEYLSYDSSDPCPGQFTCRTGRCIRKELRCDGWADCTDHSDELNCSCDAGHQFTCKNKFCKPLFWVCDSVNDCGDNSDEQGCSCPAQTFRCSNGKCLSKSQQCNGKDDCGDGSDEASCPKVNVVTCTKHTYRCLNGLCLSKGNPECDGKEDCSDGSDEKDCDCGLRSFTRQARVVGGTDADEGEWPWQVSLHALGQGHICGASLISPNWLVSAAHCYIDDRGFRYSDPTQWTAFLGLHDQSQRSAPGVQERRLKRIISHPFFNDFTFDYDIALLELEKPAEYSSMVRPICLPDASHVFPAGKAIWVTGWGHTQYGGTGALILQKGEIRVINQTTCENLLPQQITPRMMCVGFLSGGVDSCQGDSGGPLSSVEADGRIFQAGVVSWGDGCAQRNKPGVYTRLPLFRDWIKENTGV
Experimental: In the next step, 50 µL of 20 µM BOC‐Gln‐Ala‐Arg‐AMC protease substrate (Bachem #4017019) in the case of TMPRSS2 and TMPRSS14 or 50 µL of 150 µM BOC‐Gln‐Arg‐Arg‐AMC (PeptaNova) in the case of TMPRSS1 was added and incubated for 2 h for TMPRSS2, or 5 mins in the case of TMPRSS1/14 at 37 °C. Fluorescence intensity was measured after 2 h at an excitation wavelength of 380 nm and emission wavelength of 460 nm in a SynergyTM H1 microplate reader (BioTek) with Gen5 3.04 software. […] Assays were performed in a total volume of 100 µL in quadruplicate wells of a 96 Nunc well plate (Thermo Scientific #10174221) with a final TMPRSS2 concentration of 20 nM. Initial velocities were measured in 50 s intervals for 15 min with excitation of 360 nm and emission of 460 nm in a SynergyTM H1 microplate reader. K m and V max were calculated from Michaelis–Menten plots using GraphPadPrism. The inhibitory constant K i was calculated from the IC50 values according to the Cheng–Prusoff equation (K i = IC50/(1 + [S]/K m)) for competitive reversible inhibitors.^[ [91] ^]

hCoV-NL63 = test: HCoV-NL63 inhibition assay in Caco-2 cells; type: cell-based
Experimental: Caco‐2 cells (25 000) were seeded in a 96‐well flat‐bottom plate before the following day, cells were treated for 30 min with serial dilutions of compounds in PBS and the cells were infected with a MOI of 0.018 and incubated at 33 °C. At 72 hpi, cells were detached and fixed in a final concentration of 4% PFA for 30 min. Subsequently, cells were washed with PBS and stained for flow cytometry analysis with anti‐NL63‐nucleocapsid antibody (SinoBiological #40641‐T62) diluted 1:5000 in Buffer B (Fix and Perm, MuBio Nordic) for 40 min at 4 °C. Cells were washed twice with FACS buffer (1% FCS in PBS) and incubated with Alexa Flour 647 labeled anti‐rabbit antibody (Cell Signaling #4414) diluted 1:5000 in FACS buffer for 30 min at 4 °C before the cells were washed again twice with FACS buffer. Analysis was performed using a CytoflexLX flow cytometer (Beckmann Coulter) with CytExpert 2.3 software.

SARS-CoV-2 Omicron BA.1 = test: microbe, parasite or virus in culture; type: cell-based
[4] = test system: Influenza A/Victoria/361/11 (Vict11; A/H3N2); test: Influenza virus inhibition assay in Calu-3 cells, IAV H3N2; type: cell-based, influenza A virus
TMPRSS11D = target: T2, TMPRSS11D (Homo sapiens, UniProt O60235); test: Cellular TMPRSS11D activity assay in transfected HEK293T cells; type: cell-based
T2 construct: encoding the respective transmembrane serine protease per well; host or cells: HEK293T
T2 sequence (O60235 whole entry): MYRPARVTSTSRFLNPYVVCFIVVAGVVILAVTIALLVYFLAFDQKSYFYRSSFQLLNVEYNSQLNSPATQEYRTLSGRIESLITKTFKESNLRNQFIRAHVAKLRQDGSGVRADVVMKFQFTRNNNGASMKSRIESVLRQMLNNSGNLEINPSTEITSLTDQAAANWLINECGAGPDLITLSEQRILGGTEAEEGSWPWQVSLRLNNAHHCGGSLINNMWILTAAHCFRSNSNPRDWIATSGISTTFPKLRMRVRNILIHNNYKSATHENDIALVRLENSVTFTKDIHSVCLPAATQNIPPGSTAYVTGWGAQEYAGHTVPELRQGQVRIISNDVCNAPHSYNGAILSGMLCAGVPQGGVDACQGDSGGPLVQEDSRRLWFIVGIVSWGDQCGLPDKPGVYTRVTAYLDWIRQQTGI
Experimental: (§1) Twenty thousand HEK293T cells were seeded in a 96‐well flat bottom plate. The next day, cells were transfected with 100 ng of an expression plasmid (Backbone: Twist Bioscience, EF1alpha mammalian expression vector) encoding the respective transmembrane serine protease per well using LT1 transfection reagent (TMPRSS2 human NCBI RefSeq: NP_005647.3; TMPRSS2 Syrian gold hamster NCBI RefSeq: XP_012971683.1; TMPRSS11D NCBI RefSeq: NP_004253.1; TMPRSS13 NCBI RefSeq: NP_001070731.1). In short, plasmid DNA was mixed in a 1:3 ratio with LT1 in a serum‐free medium and incubated for 20 min before the mixture was applied dropwise onto the cells. Sixteen hours post‐transfection, the medium was replaced by a serum‐free medium, and cells were treated with serial dilution of compounds in PBS. After 15 min of incubation at 37 °C, 100 µM of respective protease‐specific substrate (TMPRSS2: Boc‐QAR‐AMC, Bachem # 4017019; TMPRSS11D: Boc‐FSR‐AMC, Bachem # 4012340; TMPRSS13: Pyr‐RTKR‐AMC, Bachem #4018149) was added and incubated for 2 h at 37 °C. Fluorescence intensity was recorded at an excitation wavelength of 380 nm and emission wavelength of 460 nm in a Synergy H1 microplate reader (BioTek) with Gen 5 3.04 software. Values were background corrected for non‐transfected HEK293T‐cells.

Kallikrein 5 = target: T3, Kallikrein 5 (Homo sapiens, UniProt Q9Y337); test: Recombinant kallikrein 5 activity assay; type: biochemical; settings: recombinant enzyme
T3 construct: purchased R&D 1108
T3 sequence (Q9Y337 23-293): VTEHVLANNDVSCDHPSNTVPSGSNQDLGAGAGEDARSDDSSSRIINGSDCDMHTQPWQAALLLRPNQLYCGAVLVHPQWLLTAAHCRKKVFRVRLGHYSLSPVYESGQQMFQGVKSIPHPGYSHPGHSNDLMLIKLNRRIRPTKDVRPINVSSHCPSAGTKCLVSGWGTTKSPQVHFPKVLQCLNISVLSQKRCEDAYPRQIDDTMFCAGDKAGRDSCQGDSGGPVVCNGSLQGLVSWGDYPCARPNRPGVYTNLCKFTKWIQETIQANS
Experimental: Kallikrein 5 activity was measured by mixing 25 µL of compound with 25 µL of 2 µg mL^−1 of recombinant enzyme (R&D #1108) in assay buffer (100 mM NaH2PO4, pH 8) for 15 min at 37 °C before the addition of 50 µL of BOC‐Val‐Pro‐Arg‐AMC substrate (R&D #ES011). The mixture was incubated for 5 min at 37 °C before fluorescence intensity was measured at an excitation wavelength of 380 nm and emission wavelength of 460 nm in a SynergyTM H1 microplate reader (BioTek) with Gen5 3.04 software.

TMPRSS13 = target: T4, TMPRSS13 (Homo sapiens, UniProt Q9BYE2); test: Cellular TMPRSS13 activity assay in transfected HEK293T cells; type: cell-based
T4 construct: encoding the respective transmembrane serine protease per well; host or cells: HEK293T
T4 sequence (Q9BYE2 other isoform, or with tags, fused parts or gaps): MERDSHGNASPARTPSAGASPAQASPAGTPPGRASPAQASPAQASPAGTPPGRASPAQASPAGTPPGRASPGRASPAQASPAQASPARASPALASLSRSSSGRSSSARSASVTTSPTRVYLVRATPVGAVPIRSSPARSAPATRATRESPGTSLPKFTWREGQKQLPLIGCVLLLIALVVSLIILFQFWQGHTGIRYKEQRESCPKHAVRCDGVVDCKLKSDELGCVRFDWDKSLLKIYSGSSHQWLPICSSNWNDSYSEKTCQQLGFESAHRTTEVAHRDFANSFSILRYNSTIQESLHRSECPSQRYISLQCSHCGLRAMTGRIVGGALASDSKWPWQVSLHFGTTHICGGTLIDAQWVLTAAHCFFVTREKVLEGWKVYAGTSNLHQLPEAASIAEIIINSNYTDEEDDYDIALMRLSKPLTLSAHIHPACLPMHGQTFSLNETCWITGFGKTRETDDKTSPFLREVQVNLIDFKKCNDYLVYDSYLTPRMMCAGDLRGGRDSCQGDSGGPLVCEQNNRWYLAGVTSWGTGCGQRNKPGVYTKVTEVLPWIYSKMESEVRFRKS
Experimental: as §1

[5] = test system: lentiviral pseudoparticles harboring VSV-G glycoprotein; type: cell-based
[6] = Table S1, read-out: anti-viral IC50 (±SEM), IBV
[7] = Table S1, read-out: anti-viral IC50 (±SEM), IAV H1N1
[8] = Human coronavirus NL63, Caco-2, Table S1, read-out: anti-viral IC50 (±SEM), hCoV-NL63

With O=C1c2c(O)c(=O)ccn2N([C@@H]2c3ccccc3SCc3c2ccc(F)c3F)[C@@H]2COCCN12 [Baloxavir acid] the IC50 [1, 6] was 10.3 ± 2 nM and the IC50 [2, 7] was 1.6 ± 1 nM.

For CN(C)C(=O)COC(=O)Cc1ccc(OC(=O)c2ccc(NC(=N)N)cc2)cc1 [Camostat mesylate], the plasma half-life [3] is given as < 2 h, the IC50 (TMPRSS14 (Matriptase)) is given as 23 nM and the IC50 (hCoV-NL63; Human coronavirus NL63, Caco-2, 72 h, read-out: IC50, hCoV-NL63 replication) is given as 110 nM. For the same molecule, the IC50 (hCoV-NL63; [8]) was 110 ± 24 nM, the IC50 (SARS-CoV-2 Omicron BA.1; Severe acute respiratory syndrome coronavirus 2, Caco-2, 24 h, read-out: IC50, SARS-CoV-2 Omicron BA.1) was 68 nM and the IC50 (SARS-CoV-2 Omicron BA.1; Severe acute respiratory syndrome coronavirus 2, Caco-2, read-out: anti-viral IC50 (±SEM), SARS-CoV-2 BA.1) was 68.1 ± 5 nM. The IC50 ([4]; Influenza A virus, H3N2, Calu-3, 72 h, read-out: IC50, IAV H3N2 (Vict11)) was 50 nM, the IC50 ([4]; Influenza A virus, H3N2, Calu-3, Table S1, read-out: anti-viral IC50 (±SEM), IAV H3N2) was 50.2 ± 16 nM and the IC50 (TMPRSS11D) was 194 nM. For the same molecule, the IC50 ([1]; Influenza B virus, Calu-3, 72 h, read-out: IC50, IBV (Ned05)) was 125 nM, the IC50 ([1]; Influenza B virus, Calu-3, Table S1, read-out: anti-viral IC50 (±SEM), IBV) was 125 ± 33 nM and the IC50 (Kallikrein 5) was 536 nM. The IC50 ([2]; Influenza A virus, Calu-3, 72 h, read-out: IC50, IAV H1N1 (Virg09)) was 220 nM, the IC50 ([2]; Influenza A virus, Calu-3, Table S1, read-out: anti-viral IC50 (±SEM), IAV H1N1) was 220 ± 49 nM and the IC50 (TMPRSS13) was 93 nM.

In the case of N=C(N)c1ccc2cc(OC(=O)c3ccc(N=C(N)N)cc3)ccc2c1 [Nafamostat mesylate], the half-life [3] is listed as 8 min.

CC(C)(C)[C@H](NC(=O)C(F)(F)F)C(=O)N1C[C@H]2[C@@H]([C@H]1C(=O)N[C@H](C#N)C[C@@H]1CCNC1=O)C2(C)C [Nirmatrelvir] gave an IC50 (hCoV-NL63; [8]) of 1260 ± 64 nM.

Molecule Aprotinin has an IC50 ([4]; Table S1, read-out: anti-viral IC50 (±SEM), IAV H3N2) of 1460 ± 693 nM, an IC50 [1, 6] of 2790 ± 871 nM and an IC50 [2, 7] of 2250 ± 886 nM.

In the case of “CNLPIVRGPCRAFIQLWAFDAVKGKCVLFPYGGCQGNGNKFYSEKECREYC (disulfide 1-51, 10-34, 26-47) [Bikunin KD 2]”, the “effect on VSV-G-mediated pseudoparticle entry” value [5] is reported as “without affecting VSV‐G‐driven entry”.

B1: Bikunin (protein, UniProt P02760 206-352, looked up)
Inter-alpha-trypsin inhibitor …: AVLPQEEEGSGGGQLVTEVTKKEDSCQLGYSAGPCMGMTSRYFYNGTSMACETFQYGGCMGNGNNFVTEKECLQTCRTVAACNLPIVRGPCRAFIQLWAFDAVKGKCVLFPYGGCQGNGNKFYSEKECREYCGVPGDGDEELLRFSN
modifications: Inter-alpha-trypsin inhibitor light chain
With B1 the “effect on VSV-G-mediated pseudoparticle entry” value [5] was “non‐specific effects against VSV‐G‐mediated entry”.
